US8410049B2, “Methods and kits for preventing hypoglycemia” (Cebix, priority 2009, dated 2013)

Legend:
[1] = test system: type 1 diabetes patients with peripheral neuropathy; settings: in vivo
[2] = subcutaneously administered; cited from earlier work

CC(C)C[C@H](NC(=O)[C@H](C)NC(=O)[C@H](CC(C)C)NC(=O)[C@@H]1CCCN1C(=O)[C@H](CCC(N)=O)NC(=O)[C@H](CC(C)C)NC(=O)[C@H](CO)NC(=O)CNC(=O)[C@H](C)NC(=O)CNC(=O)[C@@H]1CCCN1C(=O)CNC(=O)CNC(=O)CNC(=O)[C@H](CC(C)C)NC(=O)[C@H](CCC(=O)O)NC(=O)[C@@H](NC(=O)[C@H](CCC(N)=O)NC(=O)CNC(=O)[C@@H](NC(=O)[C@H](CCC(N)=O)NC(=O)[C@H](CC(C)C)NC(=O)[C@H](CC(=O)O)NC(=O)[C@H](CCC(=O)O)NC(=O)[C@H](C)NC(=O)[C@@H](N)CCC(=O)O)C(C)C)C(C)C)C(=O)N[C@@H](CCC(=O)O)C(=O)NCC(=O)N[C@@H](CO)C(=O)N[C@@H](CC(C)C)C(=O)N[C@@H](CCC(N)=O)C(=O)O [C-peptide, Recombinant human C-peptide]
M (2): AEs of moderate intensity (M): Myalgia [1] | AEs of moderate intensity (M): Pain in extremity [1]
2: AEs of any severity: Back pain [1] | AEs of any severity: Blister [1] | AEs of any severity: Candidiasis [1] | AEs of any severity: Chest pain [1] | AEs of any severity: Exostosis [1] | AEs of any severity: Fatigue [1] | AEs of any severity: Hepatic enzyme increase [1] | AEs of any severity: Hypoaesthesia [1] | AEs of any severity: Hypoglycemic coma [1] | AEs of any severity: Otitis [1] | AEs of any severity: Pharyngitis [1] | AEs of any severity: Pregnancy [1] | AEs of any severity: Reflux gastritis [1] | AEs of any severity: Rib fracture/injury [1] | AEs of any severity: Sinusitis [1] | AEs of any severity: Tonsilitis [1] | AEs of any severity: Tooth infection [1] | Number of AEs: Hypoglycemic coma [1]
0: Number of AEs: Blood glucose fluctuation [1] | Number of AEs: Hypothyroidism [1] | Number of AEs: Increased appetite [1]
2 (2): AEs of any severity: Hyperthermeasthesia [1] | AEs possibly related to study drug: Hyperthermeasthesia [1]
M (3): AEs of moderate intensity (M): Feeling abnormal [1] | AEs of moderate intensity (M): Gastroenteritis [1]
23: AEs of any severity: Nasopharyngitis [1]
S (1): AEs of severe intensity (S): Diarrhea [1] | AEs of severe intensity (S): Hepatic enzyme increase [1] | AEs of severe intensity (S): Hyperglycemia [1] | AEs of severe intensity (S): Pharyngitis [1] | AEs of severe intensity (S): Pregnancy [1]
4: Occurrences of hypoglycemic coma [1]
approximately 80%: Bioavailability [2]
Two SAEs: Serious adverse events (SAEs) [1]
1 (1): AEs of any severity: Hyperaesthesia [1] | AEs of any severity: Injection site burning [1] | AEs possibly related to study drug: Hyperaesthesia [1] | AEs possibly related to study drug: Hyperglycemia [1] | AEs possibly related to study drug: Injection site burning [1] | Number of AEs probably/possibly related to study drug: Hyperglycemia [1]
S (2): AEs of severe intensity (S): Hypoglycemic coma [1]
1: AEs of any severity: Allergic urticaria [1] | AEs of any severity: Anemia [1] | AEs of any severity: Aptyalism [1] | AEs of any severity: Arterial disorder [1] | AEs of any severity: Arthritis [1] | AEs of any severity: Asthma [1] | AEs of any severity: Bronchitis [1] | AEs of any severity: Burning sensation [1] | AEs of any severity: Cardiac arrhythmia [1] | AEs of any severity: Cardiac murmur [1] | AEs of any severity: Carpal tunnel syndrome [1] | AEs of any severity: Celiac disease [1] | AEs of any severity: Cough [1] | AEs of any severity: Dacryocanaliculitis [1] | AEs of any severity: Depression [1] | AEs of any severity: Dermatitis allergic [1] | AEs of any severity: Dry skin [1] | AEs of any severity: Epicondylitis [1] | AEs of any severity: Epistaxis [1] | AEs of any severity: Eye injury [1] | AEs of any severity: Eye operation [1] | AEs of any severity: Fibroma [1] | AEs of any severity: Flatulence [1] | AEs of any severity: Food poisoning [1] | AEs of any severity: Gastritis [1] | AEs of any severity: Hematuria [1] | AEs of any severity: Hemorrhage [1] | AEs of any severity: Hypercalcemia [1] | AEs of any severity: Hyperlipidemia [1] | AEs of any severity: Hypertension [1] | AEs of any severity: Hypotension [1] | AEs of any severity: Joint sprain ankle [1] | AEs of any severity: Knee injury [1] | AEs of any severity: Leucopenia [1] | AEs of any severity: Limb operation [1] | AEs of any severity: Lymph node enlargement [1] | AEs of any severity: Macular edema [1] | AEs of any severity: Menopausal disorder [1] | AEs of any severity: Menstration irregular [1] | AEs of any severity: Migraine [1] | AEs of any severity: Multiple sclerosis [1] | AEs of any severity: Muscle cramp [1] | AEs of any severity: Muscle spasm [1] | AEs of any severity: Muscular atrophy [1] | AEs of any severity: Musculoskeletal chest [1] | AEs of any severity: Pain in neck [1] | AEs of any severity: Pain in shoulder [1] | AEs of any severity: Panic disorder [1] | AEs of any severity: Restless legs syndrome [1] | AEs of any severity: Rheumarthritis [1] | AEs of any severity: ST elevation (ECG) [1] | AEs of any severity: Scar [1] | AEs of any severity: Sciatica [1] | AEs of any severity: Season allergy [1] | AEs of any severity: Sensory loss [1] | AEs of any severity: Sepsis [1] | AEs of any severity: Skin infection [1] | AEs of any severity: Stress disorder [1] | AEs of any severity: Sweating increased [1] | AEs of any severity: Synovial disorder [1] | AEs of any severity: Tachycardia (stress) [1] | AEs of any severity: Tendinitis [1] | AEs of any severity: Tendinous contracture [1] | AEs of any severity: Tendosynovitis stenosans [1] | AEs of any severity: Tooth extraction [1] | AEs of any severity: Tooth injury [1] | AEs of any severity: Torticollis [1] | AEs of any severity: Upper respiratory tract infection [1] | AEs of any severity: Vertigo [1] | AEs of any severity: Vision decreased [1] | AEs of any severity: Vitamin B12 deficiency [1] | AEs of any severity: Vitreous hemorrhage [1] | AEs possibly related to study drug: Hepatic enzyme increase [1] | AEs possibly related to study drug: Hypoglycemia [1] | AEs possibly related to study drug: Pain in extremity [1] | Number of AEs probably/possibly related to study drug: Hypoglycemia [1]
3: AEs of any severity: Abdominal pain [1] | AEs of any severity: Arthralgia [1] | AEs of any severity: Feeling abnormal [1] | AEs of any severity: Pyrexia [1]
No local reactions: Local reactions ([1]; sc)
well tolerated: Tolerability [1]
M (1); S (1): AEs of moderate intensity (M): Rib fracture/injury [1] | AEs of severe intensity (S): Hypoglycemia [1] | AEs of severe intensity (S): Rib fracture/injury [1]
no adverse drug reactions: Adverse drug reactions or significant changes in safety variables [1]
M (1): AEs of moderate intensity (M): Abdomnial pain [1] | AEs of moderate intensity (M): Arthralgia [1] | AEs of moderate intensity (M): Arthritis [1] | AEs of moderate intensity (M): Arthropathy [1] | AEs of moderate intensity (M): Back pain [1] | AEs of moderate intensity (M): Bronchitis [1] | AEs of moderate intensity (M): Carpal tunnel syndrome [1] | AEs of moderate intensity (M): Celiac disease [1] | AEs of moderate intensity (M): Dacryocanaliculitis [1] | AEs of moderate intensity (M): Depression [1] | AEs of moderate intensity (M): Dizziness [1] | AEs of moderate intensity (M): Epicondylitis [1] | AEs of moderate intensity (M): Fatigue [1] | AEs of moderate intensity (M): Gastritis [1] | AEs of moderate intensity (M): Hyperlipidemia [1] | AEs of moderate intensity (M): Hypoglycemic coma [1] | AEs of moderate intensity (M): Hypotension [1] | AEs of moderate intensity (M): Knee injury [1] | AEs of moderate intensity (M): Limb operation [1] | AEs of moderate intensity (M): Migraine [1] | AEs of moderate intensity (M): Muscle cramp [1] | AEs of moderate intensity (M): Nausea [1] | AEs of moderate intensity (M): Otitis [1] | AEs of moderate intensity (M): Paraesthesia [1] | AEs of moderate intensity (M): Pharyngitis [1] | AEs of moderate intensity (M): Pyrexia [1] | AEs of moderate intensity (M): Restless legs syndrome [1] | AEs of moderate intensity (M): ST elevation (ECG) [1] | AEs of moderate intensity (M): Sciatica [1] | AEs of moderate intensity (M): Stress disorder [1] | AEs of moderate intensity (M): Tendinous [1] | AEs of moderate intensity (M): Tonsillitis [1] | AEs of moderate intensity (M): Vision decreased [1] | AEs of moderate intensity (M): Vitreous hemorrhage [1]
